Holding throughout (test): Bacterial Assay: Determination of Antibacterial Activity (MIC, broth microdilution or agar dilution)
What all share (type): cell-based
(In general: In broth dilution the organism is exposed to a series of concentrations in liquid medium.)

Assay [1] relates to Clostridium difficile (Isolate ID 027-01). The following applies: Clostridioides difficile, 48 h, read-out: MIC (μg/mL) C. difficile (027-01). The procedure, abridged:
(§1)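 MICs were set by CLSI broth microdilution or agar dilution for anaerobes, read visually after 48 hours at 37° C. under anaerobic gas packs. Medium was reinforced clostridial medium with 0.1% defibrinated horse blood; values are binned as A ≦1.01, B >1.0-4.0, C >4.0-16 μg/mL.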

Assay [2] concerns Clostridium difficile (Isolate ID BI-9). Conditions: Clostridioides difficile, 48 h, read-out: MIC (μg/mL) C. difficile (B-I9). The gist of the method: as §1
In assay [3] the test system is Clostridium difficile (Isolate ID ATCC 9689). The following applies: Clostridioides difficile, ATCC9689, 48 h, read-out: C. difficile MIC Activity Range. The gist of the method: as §1

The results in this text go back to patent US20170305943A1, “COMPOUNDS FOR THE TREATMENT OF BACTERIAL INFECTIONS” (priority 2014, published 2017).

In brackets after ≈: the same amount, converted by molar mass.

In the case of `COc1ncccc1CNC(=O)OCC(Oc1ccc(F)c(C(N)=O)c1F)c1nc(-c2ccc(C(F)(F)F)cc2)c(Br)o1` (stereo not drawn) [Compound 74, 2-{5-bromo-4-[4-(trifluoromethyl)phenyl]-1,3-oxazol-2-yl}-2-(3-carbamoyl-2,4-difluorophenoxy)ethyl [(2-methoxypyridin-3-yl)methyl]carbamate], the MIC in assay [1] is 0.5 µg/mL (≈ 0.745 µM); in assay [2], 0.5 µg/mL (≈ 0.745 µM); in assay [3] it was less than 1.01 mg/L.

As to `NC(=O)c1c(F)ccc(OCc2nc(-c3ccc(S(F)(F)(F)(F)F)cc3)cs2)c1F` [Compound 112, 2,6-difluoro-3-({4-[4-(pentafluoro-lambda~6~- sulfanyl)phenyl]-1,3-thiazol-2-yl}methoxy)benzamide], the MIC was 0.12 µg/mL (≈ 0.254 µM) in assay [1], 0.12 µg/mL (≈ 0.254 µM) in assay [2] and less than 1.01 mg/L in assay [3].

In the case of `NC(=O)c1c(F)ccc(OCc2cccc(-c3ccc(Cl)cc3)n2)c1F` [Compound 194, 3-{[6-(4-chlorophenyl)pyridin-2-yl]methoxy}-2,6-difluorobenzamide], the MIC in assay [1] is 0.5 µg/mL (≈ 1.33 µM); in assay [2] it was 0.5 µg/mL (≈ 1.33 µM); in assay [3] it was less than 1.01 mg/L.

For the molecule `NC(=O)c1c(F)ccc(OCCOCCOc2ccc(S(F)(F)(F)(F)F)cc2)c1F` [Compound 161, 2,6-difluoro-3-(2-{2-[4-(pentafluoro-lambda~6~-sulfanyl)phenoxy]ethoxy}ethoxy)benzamide], the MIC is 2 µg/mL (≈ 4.32 µM) in assay [1], 1 µg/mL (≈ 2.16 µM) in assay [2] and less than 1.01 mg/L in assay [3].

As to `NC(=O)c1c(F)ccc(OCCCCOc2ccc(C(F)(F)F)cc2)c1F` [Compound 129, 2,6-difluoro-3-{4-[4 (trifluoromethyl)phenoxy]butoxy}benzamide], the MIC is 0.06 µg/mL (≈ 0.154 µM) in assay [1], 0.06 µg/mL (≈ 0.154 µM) in assay [2] and less than 1.01 mg/L in assay [3].

As for `NC(=O)c1c(F)ccc(OCc2nc(C#Cc3cccc(Cl)c3)cs2)c1F` [Compound 198, 3-({4-[(3-chlorophenyl)ethynyl]-1,3-thiazol-2-yl}methoxy)-2,6-difluorobenzamide], the MIC in assay [1] is 0.12 µg/mL (≈ 0.296 µM); in assay [2] it was 0.25 µg/mL (≈ 0.618 µM); in assay [3] it was less than 1.01 mg/L.

Turning to `NC(=O)c1c(F)ccc(OCCCCCCOc2ccc(Cl)cc2)c1F` [Compound 133, 3-{[6-(4-chlorophenoxy)hexyl]oxy}-2,6-difluorobenzamide], the MIC in assay [1] was 0.5 µg/mL (≈ 1.3 µM); in assay [2] it was 0.5 µg/mL (≈ 1.3 µM); in assay [3], less than 1.01 mg/L.
